According to patent US11104648B2, “Pyrazole derivative” (Zhejiang Research Institute of Chemical Industry Co., Ltd., priority 2018, dated 2021):
Where two headings read alike, the source gives them in different places.

Columns and labels:
Assay type in all cases: in vivo
[1] = system: Eggs of Tetranychus Cinnabarinus; assay: Activity assay of eggs of Tetranychus cinnabarinus (spray method, ovicidal); settings: for pest or weed control at 5 µg/mL / pest or weed control at 2 µg/mL: Tetranychus cinnabarinus
Description: According to the solubility of the test compound, the crude drug was dissolved in N N-dimethylformamide, and then prepared into a test solution of the desired concentration with 1‰ Tween 80 aqueous solution. The content of N. N-dimethylformamide in the solution should not exceed 10%.
Spray method. The broad bean leaves with petioles were cut and inserted into a bottle with water. A certain number of female mites were placed, 24h later, adult mites were removed, and spray treatment was performed in 24 h. The experiment was repeated three times, and a blank control was set, and placed to an observation room (26±2° C., humidity 70%˜80%, 16h light per day) for culture. When the blank control group was incubated, the results were investigated. The non-incubated ones were used as death for investigation.

[2] = system: Tetranychus cinnabarinus Nymphs; assay: Activity assay of Tetranychus cinnabarinus nymphs (spray on broad bean leaves); settings: 48 h; for pest or weed control at 0.5 µg/mL: concentration 0.5 mg/L
Description: According to the solubility of the test compound, the crude drug was dissolved in N, N-dimethylformamide, and then prepared into a test solution of the desired concentration with 1‰ Tween 80 aqueous solution. The content of N,N-dimethylformamide in the solution should not exceed 10%.
The broad bean leaves with petioles were cut and inserted into a small bottle with water. A certain number of brightly colored, active female adult mites were placed, 24h later, adult mites were removed, and leaves with insufficient eggs were removed. When eggs were hatched and grew into nymphs, spray treatment was performed. The experiment was repeated three times, and a blank control was set, and placed to an observation room (26±2° C., humidity 70%˜80%, 16h light per day) for culture. 48 h later, the results were investigated. The nymphs were gently touched during investigation, and if no response, they were regarded as deaths.

[3] = system: adult Tetranychus cinnabarinus; assay: Activity assay of adult Tetranychus cinnabarinus (whole-plant spray on bean seedlings); settings: 48 h; for pest or weed control at 1.25 µg/mL: concentration 1.25 mg/L
Description: According to the solubility of the test compound, the crude drug was dissolved in N, N-dimethlfornamide, and then prepared into a test solution of the desired concentration with 1‰ Tween 80 aqueous solution. The content of N,N-dimethylformamide in the solution should not exceed 10%.
Two euphylla bean seedlings were taken, after inoculated with adult Tetranychus cinnabarinus and the base number was investigated, whole plants were sprayed with a hand-held sprayer. The experiment was repeated three times for each treatment, after treatment, placed in a standard observation room after treatment, to investigate the survival number of mites in 48 hand calculate the death rate.

[4] = concentration 5 mg/L, spray, non-incubated eggs counted as dead, read-out: ovicidal activity
[5] = concentration 2.5 mg/L, read-out: nymph-killing activity
[6] = concentration 2.5 mg/L, read-out: adult mite-killing activity
[7] = concentration 2 mg/L, spray, read-out: ovicidal activity
[8] = read-out: adult mite-killing activity
[9] = read-out: nymph-killing activity

Row | SMILES | pest or weed control at 5 µg/mL [1, 4] [%] | pest or weed control at 2.5 µg/mL [2, 5] [%] | pest or weed control at 2.5 µg/mL [3, 6] [%] | other results
1 | CCC(=O)OCO/C(=C(/C#N)c1ccc(C(C)(C)C)cc1)c1c(C)c(C)nn1CC [Compound 377] | ≥ 90 | ≥ 95 | ≥ 90 | 
2 | C#CCOC(=O)OCO/C(=C(/C#N)c1ccc(C(C)(C)C)cc1)c1cc(C)nn1C [Compound 476] | ≥ 90 | ≥ 95 | ≥ 90 | 
3 | COCC(=O)OC(C)O/C(=C(/C#N)c1ccc(C(C)(C)C)cc1)c1c(C)c(C)nn1C (stereo not shown) [Compound 183] | ≥ 90 | ≥ 95 | ≥ 90 | 
4 | CCn1nc(C)c(Cl)c1/C(OC(C)OC(=O)C(C)C)=C(\C#N)c1ccc(C(C)(C)C)cc1 (stereo not shown) [Compound 329] | ≥ 90 | ≥ 95 | ≥ 90 | 
5 | Cc1nn(C)c(/C(OC(C)OC(=O)C(C)C)=C(\C#N)c2ccc(C(C)(C)C)cc2)c1C (stereo not shown) [Compound 179] | ≥ 90 | ≥ 95 | ≥ 90 | 
6 | CCC(=O)OC(C)O/C(=C(/C#N)c1ccc(C(C)(C)C)cc1)c1c(Cl)c(C)nn1CC (stereo not shown) [Compound 327] | ≥ 90 | ≥ 95 | ≥ 90 | pest or weed control at 2 µg/mL [1, 7]: ≥ 90%; pest or weed control at 2 µg/mL ([2]; concentration 2 mg/L, read-out: nymph-killing activity): ≥ 90%; pest or weed control at 1.25 µg/mL [3, 8]: ≥ 90%
7 | COC(=O)COC(=O)OC(C)O/C(=C(/C#N)c1ccc(C(C)(C)C)cc1)c1cc(C)nn1C (stereo not shown) [Compound 509] | ≥ 90 | ≥ 95 | ≥ 90 | 
8 | C=CC(=O)OCO/C(=C(/C#N)c1ccc(C(C)(C)C)cc1)c1c(C)c(C)nn1CC [Compound 392] | ≥ 90 | ≥ 95 | ≥ 90 | 
9 | CC(=O)OC(C)O/C(=C(/C#N)c1ccc(C(C)(C)C)cc1)c1c(C)c(C)nn1C (stereo not shown) [Compound 176] | ≥ 90 | ≥ 95 | ≥ 90 | 
10 | CCn1nc(C)c(Cl)c1/C(OCOC(=O)C1CCCCC1)=C(\C#N)c1ccc(C(C)(C)C)cc1 [Compound 311] | ≥ 90 | ≥ 95 | ≥ 90 | 
11 | COCC(=O)OCO/C(=C(/C#N)c1ccc(C(C)(C)C)cc1)c1cc(C)nn1C [Compound 8] | ≥ 90 | ≥ 95 | ≥ 90 | 
12 | CCC(=O)OC(C)O/C(=C(/C#N)c1ccc(C(C)(C)C)cc1)c1c(C)c(C)nn1C (stereo not shown) [Compound 177] | ≥ 90 | ≥ 95 | ≥ 90 | 
13 | CCn1nc(C)c(Cl)c1/C(OC(C)OC(=O)CSC)=C(\C#N)c1ccc(C(C)(C)C)cc1 (stereo not shown) [Compound 335] | ≥ 90 | ≥ 95 | ≥ 90 | 
14 | Cc1cc(/C(OCOC(=O)OCC(C)C)=C(\C#N)c2ccc(C(C)(C)C)cc2)n(C)n1 [Compound 457] | ≥ 90 | ≥ 95 | ≥ 90 | 
15 | CC(=O)OC(C)O/C(=C(/C#N)c1ccc(C(C)(C)C)cc1)c1cc(C)nn1C (stereo not shown) [Compound 26] | ≥ 90 | ≥ 95 | ≥ 90 | 
16 | Cc1cc(/C(OCOC(=O)OCC(F)(F)F)=C(\C#N)c2ccc(C(C)(C)C)cc2)n(C)n1 [Compound 467] | ≥ 90 | ≥ 95 | ≥ 90 | 
17 | C=CCOC(=O)OC(C)O/C(=C(/C#N)c1ccc(C(C)(C)C)cc1)c1cc(C)nn1C (stereo not shown) [Compound 506] | ≥ 90 | ≥ 95 | ≥ 90 | 
18 | CCCC(=O)OC(C)OC(=C(C#N)c1ccc(C(C)(C)C)cc1)c1ccccc1C(F)(F)F (stereo not shown) [Compound 8-3, reference compound] | < 30 | < 80 | < 80 | pest or weed control at 2 µg/mL [1, 7]: 0%; pest or weed control at 2 µg/mL ([1]; eggs, concentration 2 mg/L, parallel determination, read-out: Death rate (%)): 0%; pest or weed control at 0.5 µg/mL [2, 9]: < 30%; pest or weed control at 0.5 µg/mL ([2]; nymphs, parallel determination, read-out: Death rate (%)): 30%; pest or weed control at 1.25 µg/mL ([3]; adult mites, parallel determination, read-out: Death rate (%)): 45%; pest or weed control at 1.25 µg/mL [3, 8]: < 50%
19 | CCn1nc(C)c(Cl)c1/C(OCOC(=O)CC(C)C)=C(\C#N)c1ccc(C(C)(C)C)cc1 [Compound 307] | ≥ 90 | ≥ 95 | ≥ 90 | 
20 | COC(=O)CSC(=O)OC(C)O/C(=C(/C#N)c1ccc(C(C)(C)C)cc1)c1cc(C)nn1C (stereo not shown) [Compound 513] | ≥ 90 | ≥ 95 | ≥ 90 | 
21 | COCC(=O)OC(C)O/C(=C(/C#N)c1ccc(C(C)(C)C)cc1)c1cc(C)nn1C (stereo not shown) [Compound 33] | ≥ 90 | ≥ 95 | ≥ 90 | 
22 | CSCC(=O)OCO/C(=C(/C#N)c1ccc(C(C)(C)C)cc1)c1c(C)c(C)nn1C [Compound 160] | ≥ 90 | ≥ 95 | ≥ 90 | 
23 | Cc1nn(C)c(/C(OC(C)OC(=O)C(C)C)=C(\C#N)c2ccc(C(C)(C)C)cc2)c1Cl (stereo not shown) [Compound 104] | ≥ 90 | ≥ 95 | ≥ 90 | 
24 | C=CC(=O)OC(C)O/C(=C(/C#N)c1ccc(C(C)(C)C)cc1)c1cc(C)nn1CC (stereo not shown) [Compound 267] | ≥ 90 | ≥ 95 | ≥ 90 | 
25 | CC(=O)OCO/C(=C(/C#N)c1ccc(C(C)(C)C)cc1)c1cc(C)nn1C [Compound 1] | ≥ 90 | ≥ 95 | ≥ 90 | 
26 | CCn1nc(C)c(C)c1/C(OC(C)OC(=O)CF)=C(\C#N)c1ccc(C(C)(C)C)cc1 (stereo not shown) [Compound 412] |  |  |  | pest or weed control at 5 µg/mL ([1]; read-out: ovicidal activity): ≥ 90%; pest or weed control at 2.5 µg/mL [2, 9]: ≥ 95%; pest or weed control at 2.5 µg/mL [3, 8]: ≥ 90%
27 | CSCC(=O)OC(C)O/C(=C(/C#N)c1ccc(C(C)(C)C)cc1)c1cc(C)nn1C (stereo not shown) [Compound 35] | ≥ 90 | ≥ 95 | ≥ 90 | 
28 | CCn1nc(C)c(Cl)c1/C(OCOC(=O)COC)=C(\C#N)c1ccc(C(C)(C)C)cc1 [Compound 308] | ≥ 90 | ≥ 95 | ≥ 90 | 
29 | COC(=O)OC(C)O/C(=C(/C#N)c1ccc(C(C)(C)C)cc1)c1c(Cl)c(C)nn1C (racemic) [Compound 675] |  |  |  | Death rate (%) ([1]; eggs, concentration 2 mg/L, parallel determination): 100%
